Where “and” joins values, the source holds several entries; their conditions need not be identical. Equal values may be shown once.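 96-well plates; 48 h exposure; 5 concentrations. Endpoints by linear interpolation between flanking doses. Not reached: highest tested concentration assigned. At the GI50, growth is halved. TGI denotes the concentration required for complete inhibition of growth.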

Among the test systems are UO-31 renal; MDA-MB-231 breast; NCI-H522 lung; SR leukemia; M14 melanoma; RXF 393 renal; MOLT-4 leukemia; DU-145 prostate; RPMI-8226 leukemia; OVCAR-5 ovarian.
Holding throughout (experiment): NCI tumour cell line growth inhibition, 48 h

For `CC(C)(C)c1ccc(S(=O)(=O)N[C@H]2CC[C@H]3[C@@H]4CCc5cc(O)ccc5[C@H]4CC[C@]23C)cc1`, the GI50 is 1.81 µM in the experiment with UO-31 renal; 1.91 µM in the experiment on MDA-MB-231 breast; 2.5 µM with NCI-H522 lung; 2.17 µM in the experiment on SR leukemia; 2.02 µM in the experiment on M14 melanoma; 1.61 µM with RXF 393 renal. Also, the GI50 in the experiment with MOLT-4 leukemia was 2.46 µM; with DU-145 prostate, 3.93 µM; in the experiment with RPMI-8226 leukemia it was 1.88 µM; with OVCAR-5 ovarian, 2.08 µM. The TGI in the experiment with UO-31 renal came out at 4.11 µM; in the experiment on MDA-MB-231 breast, 4.13 µM; in the experiment on NCI-H522 lung, 7.13 µM; in the experiment on SR leukemia, 6.04 µM; in the experiment on M14 melanoma, 4.04 µM; in the experiment on RXF 393 renal, 3.46 µM. The TGI is 9.53 µM in the experiment on MOLT-4 leukemia, 12.9 µM in the experiment on DU-145 prostate, 4.51 µM with RPMI-8226 leukemia and 4.2 µM in the experiment on OVCAR-5 ovarian.
Turning to `Cc1ccc(OCCCCCCNCCO)c(C)c1`, the GI50 was 12.1 µM with UO-31 renal; 9.11 µM in the experiment on MDA-MB-231 breast; 14.7 µM with NCI-H522 lung; 14.1 µM in the experiment on SR leukemia; 16.3 µM with M14 melanoma; 6.53 µM in the experiment on RXF 393 renal. Moreover, the GI50 in the experiment on MOLT-4 leukemia was 16.3 µM; in the experiment on DU-145 prostate, 16.7 µM; with RPMI-8226 leukemia it was 15.5 µM; in the experiment with OVCAR-5 ovarian, 13.7 µM. Besides, the TGI with UO-31 renal turned out to be 26.4 µM; in the experiment on MDA-MB-231 breast, 25.5 µM; in the experiment on NCI-H522 lung, 30.1 µM; in the experiment on SR leukemia, 35.5 µM; with M14 melanoma, 35.3 µM; with RXF 393 renal it was 20.8 µM. The TGI in the experiment with MOLT-4 leukemia is 36.8 µM; in the experiment on DU-145 prostate, 30.6 µM; in the experiment with RPMI-8226 leukemia it was 37.9 µM; with OVCAR-5 ovarian, 28 µM.
As for `CCNC(=O)Oc1ccc(/C(=C(\C)c2ccc(Cl)cc2)c2ccc(OCCN3CCCCC3)cc2)cc1`, the GI50 is 2.05 µM in the experiment with UO-31 renal; 3.55 µM in the experiment on MDA-MB-231 breast; 14.1 µM with NCI-H522 lung; 2.98 µM in the experiment with SR leukemia; 1.87 µM with M14 melanoma; 2.19 µM in the experiment on RXF 393 renal. Moreover, the GI50 with MOLT-4 leukemia is 3.27 µM; with DU-145 prostate, 10.9 µM; with RPMI-8226 leukemia it was 2.31 µM; in the experiment with OVCAR-5 ovarian it was 11 µM. The TGI in the experiment on UO-31 renal came to 5.45 µM; in the experiment with MDA-MB-231 breast it was 11.5 µM; in the experiment with NCI-H522 lung, 29.9 µM; with SR leukemia it was 9.23 µM; with M14 melanoma, 3.8 µM; with RXF 393 renal, 8.77 µM. In addition, the TGI in the experiment with MOLT-4 leukemia stood at 10.6 µM; in the experiment on DU-145 prostate, 23.7 µM; in the experiment with RPMI-8226 leukemia, 5.27 µM; with OVCAR-5 ovarian it was 23.8 µM.
As for `CCCCCCN(CCCCCC)CC(O)c1cccc2ccc(Cl)cc12` (stereo not given), the GI50 with UO-31 renal was 4.85 µM; in the experiment with MDA-MB-231 breast, 4.18 µM; in the experiment with NCI-H522 lung, 7.94 µM; with SR leukemia, 3.55 µM; with M14 melanoma, 9.48 µM; in the experiment on RXF 393 renal it was 2.16 µM. The GI50 in the experiment with MOLT-4 leukemia is 7.81 µM; in the experiment on DU-145 prostate it was 11.6 µM; with RPMI-8226 leukemia, 5.2 µM; in the experiment with OVCAR-5 ovarian, 2.6 µM. Moreover, the TGI in the experiment with UO-31 renal was determined as 19.7 µM; with MDA-MB-231 breast, 16.2 µM; in the experiment on NCI-H522 lung it was 23 µM; in the experiment with SR leukemia it was 9.85 µM; with M14 melanoma, 22 µM; with RXF 393 renal it was 7.71 µM. Further, the TGI in the experiment with MOLT-4 leukemia came out at 26.1 µM; in the experiment on DU-145 prostate, 25 µM; in the experiment on RPMI-8226 leukemia, 22.4 µM; in the experiment with OVCAR-5 ovarian it was 13.7 µM.
Turning to `COc1cc2c(cc1OC)[C@H]1C(=O)c3cc4c(cc3[C@H]1N(C)C2=O)OCO4`, the TGI is greater than 39.3 µM with UO-31 renal; greater than 100 µM in the experiment with MDA-MB-231 breast; greater than 75 µM with NCI-H522 lung; greater than 100 µM with SR leukemia; greater than 76.6 µM in the experiment with M14 melanoma; greater than 100 µM with RXF 393 renal. In addition, the TGI in the experiment with MOLT-4 leukemia is 5.7 µM; with DU-145 prostate, greater than 100 µM; in the experiment with RPMI-8226 leukemia, greater than 100 µM; with OVCAR-5 ovarian it was greater than 100 µM.
With `COc1cc(C(=O)N/N=C/c2cccc([N+](=O)[O-])c2)cc(OC)c1OC`, the GI50 with UO-31 renal was 5.2 µM; in the experiment on MDA-MB-231 breast it was 26.1 µM; in the experiment with NCI-H522 lung, 2.45 µM; with SR leukemia it was 0.558 µM; in the experiment on M14 melanoma, 4.3 µM; with RXF 393 renal, 6.9 µM. Also, the GI50 with MOLT-4 leukemia was 3.98 µM; in the experiment on DU-145 prostate, 7.1 µM; in the experiment with RPMI-8226 leukemia, 5.39 µM; with OVCAR-5 ovarian, 39.7 µM. Also, the TGI in the experiment with UO-31 renal was greater than 100 µM; with MDA-MB-231 breast it was greater than 100 µM; with NCI-H522 lung it was 5.74 µM; in the experiment on SR leukemia, greater than 100 µM; in the experiment on M14 melanoma, 54.3 µM; in the experiment on RXF 393 renal, 34.3 µM. Besides, the TGI in the experiment on MOLT-4 leukemia, with DU-145 prostate, in the experiment on RPMI-8226 leukemia and in the experiment with OVCAR-5 ovarian was greater than 100 µM in each case.
Consider `O=C(NO)C(O)C(O)C(O)C(O)CO` (stereo not given), for which the GI50 in the experiment on UO-31 renal was greater than 100 µM; in the experiment on MDA-MB-231 breast, > 100 µM and 58.8 µM; in the experiment on NCI-H522 lung it was > 100 µM and 44.7 µM; in the experiment on SR leukemia, 75.9 µM; with M14 melanoma, greater than 100 µM; in the experiment with RXF 393 renal it was greater than 100 µM. Besides, the GI50 with MOLT-4 leukemia was greater than 100 µM; in the experiment on DU-145 prostate it was 40 µM and > 100 µM; in the experiment on RPMI-8226 leukemia, greater than 100 µM; with OVCAR-5 ovarian, greater than 100 µM. For the same molecule, the TGI with UO-31 renal, in the experiment on MDA-MB-231 breast, in the experiment with NCI-H522 lung, in the experiment with SR leukemia, in the experiment with M14 melanoma and in the experiment with RXF 393 renal was greater than 100 µM throughout. Moreover, the TGI with MOLT-4 leukemia, in the experiment on DU-145 prostate, in the experiment on RPMI-8226 leukemia and in the experiment with OVCAR-5 ovarian was greater than 100 µM each time.

The record behind these values is PubChem BioAssay (NCI).
